Measured values: ChEMBL document CHEMBL1759838, “Synthesis and SAR of acyclic HCV NS3 protease inhibitors with novel P4-benzoxaborole moieties” (Bioorg Med Chem Lett, 2011)
pEC50, pIC50: −log10 of the molar value.

Assays:
Hepatitis C virus [1] = assay: Antiviral activity against Hepatitis C virus genotype 1b by cell based assay; type: functional, organism-based, Hepacivirus hominis
Hepatitis C virus [2] = assay: Antiviral activity against Hepatitis C virus genotype 1a by cell based assay; type: functional, organism-based, Hepacivirus hominis; details: subtype 1a
[3] = Inhibition of Hepatitis C virus genotype 1a NS3/4A protease activity using Ac-DE-Dap(QXL520)-EE-Abu-w-[COO]-ASC(5-FAMsp)-NH2 peptide substrate by FRET assay; parameters: species or system Hepatitis C virus subtype 1a
[4] = Absorption in Sprague-Dawley rat at 5 mg/kg, po; type: ADME, organism-based; parameters: dose 5 mg/kg, route oral; details: in vivo, read-out: Activity
[5] = Lipophilicity, log D of the compound; type: physicochemical; details: octanol/water
[6] = Clearance in Sprague-Dawley rat at 1 mg/kg, iv; type: ADME, organism-based; parameters: dose 1 mg/kg, route intravenous; details: in vivo
[7] = Oral bioavailability in Sprague-Dawley rat at 5 mg/kg, po; type: ADME, organism-based; details: in vivo
[8] = AUC (0 to infinity) in Sprague-Dawley rat at 5 mg/kg, po; type: ADME, organism-based; parameters: dose 5 mg/kg, route oral, time infinity; details: plasma
[9] = Inhibition of Hepatitis C virus genotype 1a NS3/4A protease activity using (Ac-DE-D(EDANS)-EE-Abu-w-[COO]-AS-K(DABCYL)-NH2 peptide substrate by FRET assay; parameters: species or system Hepatitis C virus subtype 1a

Row | Structure (SMILES) | pEC50 (Hepatitis C virus [1]) | pEC50 (Hepatitis C virus [2]) | pIC50 [3] | Fa [4] [%] | logD [5] | clearance [6] [L/h/kg] | bioavailability [7] [%] | AUC(0-inf) [8] [µg·h/mL] | pIC50 [9]
1 | C=C[C@@H]1C[C@]1(NC(=O)[C@@H]1C[C@@H](Oc2ncc(OC)c3ccc(Cl)cc23)CN1C(=O)[C@@H](NC(=O)Oc1ccc2c(c1)B(O)OC2)C(C)(C)C)C(=O)NS(=O)(=O)C1CC1 | 7.64 | 6.77 | 8.89 |  |  |  |  |  | 
2 | C=C[C@@H]1C[C@]1(NC(=O)[C@@H]1C[C@@H](Oc2ncc(OC)c3ccc(Cl)cc23)CN1C(=O)[C@@H](NC(=O)c1ccc2c(c1)B(O)OC2)C(C)(C)C)C(=O)NS(=O)(=O)C1CC1 | 7.04 | 6.54 |  |  |  |  |  |  | 8.34
3 | C=C[C@@H]1C[C@]1(NC(=O)[C@@H]1C[C@@H](Oc2ncc(OC)c3ccc(Cl)cc23)CN1C(=O)[C@@H](NC(=O)NCc1ccc2c(c1)B(O)OC2)C(C)(C)C)C(=O)NS(=O)(=O)C1CC1 | 7.60 | 6.89 |  |  |  |  |  |  | 8.70
4 | C=C[C@@H]1C[C@]1(NC(=O)[C@@H]1C[C@@H](Oc2ncc(OC)c3ccc(Cl)cc23)CN1C(=O)[C@@H](NC(=O)Nc1cccc2c1B(O)OC2)C(C)(C)C)C(=O)NS(=O)(=O)C1CC1 | 7.42 | 7.19 |  |  |  |  |  |  | 7.80
5 | C=C[C@@H]1C[C@]1(NC(=O)[C@@H]1C[C@@H](Oc2ncc(OC)c3ccc(Cl)cc23)CN1C(=O)[C@@H](NC(=O)Nc1cc2c(cc1F)COB2O)C(C)(C)C)C(=O)NS(=O)(=O)C1CC1 | 8.37 | 7.51 | 8.77 |  |  |  |  |  | 
6 | C=C[C@@H]1C[C@]1(NC(=O)[C@@H]1C[C@@H](Oc2ncc(OC)c3ccc(Cl)cc23)CN1C(=O)[C@@H](NC(=O)Nc1ccc2c(c1)B(O)OC2(C)C)C(C)(C)C)C(=O)NS(=O)(=O)C1CC1 | 6.89 | 6.55 |  |  |  |  |  |  | 7.59
7 | C=C[C@@H]1C[C@]1(NC(=O)[C@@H]1C[C@@H](Oc2ncc(OC)c3ccc(Cl)cc23)CN1C(=O)C(Nc1ccc2c(c1)B(O)OC2)C(C)(C)C)C(=O)NS(=O)(=O)C1CC1 (single isomer, unassigned; diastereomer 2) |  |  |  |  |  |  |  |  | 6.46

Other lines, results leading:

Row | pEC50 (Hepatitis C virus [1]) | pEC50 (Hepatitis C virus [2]) | pIC50 [3] | Fa [4] [%] | logD [5] | clearance [6] [L/h/kg] | bioavailability [7] [%] | AUC(0-inf) [8] [µg·h/mL] | pIC50 [9] | Structure (SMILES)
8 | 7.62 | 6.80 | 8.66 | 0.92 | 4.5 | 0.476 | 0.42 | 0.041 |  | C=C[C@@H]1C[C@]1(NC(=O)[C@@H]1C[C@@H](Oc2ncc(OC)c3ccc(Cl)cc23)CN1C(=O)[C@@H](NC(=O)Nc1ccc2c(c1)B(O)OC2)C(C)(C)C)C(=O)NS(=O)(=O)C1CC1
9 | 7.09 | 6.30 |  |  |  |  |  |  | 8.40 | C=C[C@@H]1C[C@]1(NC(=O)[C@@H]1C[C@@H](Oc2ncc(OC)c3ccc(Cl)cc23)CN1C(=O)[C@@H](NC(=O)Nc1cccc2c1COB2O)C(C)(C)C)C(=O)NS(=O)(=O)C1CC1
10 | 7.47 | 7.33 |  |  |  |  |  |  | 8.89 | C=C[C@@H]1C[C@]1(NC(=O)[C@@H]1C[C@@H](Oc2ncc(OC)c3ccc(Cl)cc23)CN1C(=O)[C@@H](NC(=O)Nc1cc2c(cc1Cl)COB2O)C(C)(C)C)C(=O)NS(=O)(=O)C1CC1
11 | 7.47 | 6.96 |  | 4.9 | 4 | 2.93 | 4.3 | 0.075 | 8.35 | C=C[C@@H]1C[C@]1(NC(=O)[C@@H]1C[C@@H](Oc2ncc(OC)c3ccc(Cl)cc23)CN1C(=O)[C@@H](Nc1ccc2c(c1)B(O)OC2)C(C)(C)C)C(=O)NS(=O)(=O)C1CC1
12 | 7.25 | 6.44 | 8.96 |  |  |  |  |  |  | C=C[C@@H]1C[C@]1(NC(=O)[C@@H]1C[C@@H](OC(=O)N2Cc3cccc(F)c3C2)CN1C(=O)[C@@H](NC(=O)Nc1cc2c(cc1F)COB2O)C(C)(C)C)C(=O)NS(=O)(=O)C1CC1
13 | 8.07 | 8.09 |  |  |  |  |  |  | 8.51 | C=C[C@@H]1C[C@]1(NC(=O)[C@@H]1C[C@@H](Oc2cc(-c3nc(C(C)C)cs3)nc3c(C)c(OC)ccc23)CN1C(=O)[C@@H](NC(=O)Nc1cc2c(cc1F)COB2O)C(C)(C)C)C(=O)NS(=O)(=O)C1CC1
